Values quoted from earlier work as cited in patent US20250057795A1 (priority 2023, published 2025).
Where two headings read alike, the source gives them in different places.

Legend:
GPR143 [1] = molecular target: T1, GPR143 (Homo sapiens, UniProt P51810); settings: retinal pigment epithelial cells
GPR143 [2] = molecular target: T1, GPR143; settings: same site as L-DOPA
GPR143 [3] = molecular target: T1, GPR143
[4] = compared with Levodopa; due to increased solubility

T1 sequence (P51810 whole entry): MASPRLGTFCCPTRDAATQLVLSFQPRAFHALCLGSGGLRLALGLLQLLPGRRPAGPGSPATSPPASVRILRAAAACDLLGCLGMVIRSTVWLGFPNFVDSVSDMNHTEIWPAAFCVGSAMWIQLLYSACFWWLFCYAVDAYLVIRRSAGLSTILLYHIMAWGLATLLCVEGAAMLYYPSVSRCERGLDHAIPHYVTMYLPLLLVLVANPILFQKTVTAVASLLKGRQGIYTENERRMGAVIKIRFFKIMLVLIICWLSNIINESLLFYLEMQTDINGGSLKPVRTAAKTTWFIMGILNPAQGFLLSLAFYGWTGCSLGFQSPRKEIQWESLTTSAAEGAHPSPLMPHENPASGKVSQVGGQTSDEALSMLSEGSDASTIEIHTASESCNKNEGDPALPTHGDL

In the case of `COc1ccc2[nH]cc(CCNC(C)=O)c2c1` [Melatonin], the water solubility is given as “practically insoluble”.
For `NCCc1ccc(O)c(O)c1` [dopamine], the “release / production of VEGF (and exosomes)” value (GPR143 [1]) is listed as “stimulated the release of VEGF and exosomes” and the “affinity for GPR143” value (GPR143 [2]) is listed as “near-equal affinity to L-DOPA”.
For `N[C@@H](Cc1ccc(O)c(O)c1)C(=O)O` [Levodopa], the “need for anti-VEGF injections” value (GPR143 [3]; continued Levodopa therapy, compared to historical controls) is given as “decreased need for anti-VEGF injections”, the vision (GPR143 [3]; new onset nAMD, naive to anti-VEGF, 1 month) is given as “improved vision” and the “release / production of VEGF (and exosomes)” value (GPR143 [1]) is given as “downregulates the production of VEGF”. For the same compound, the “release of PEDF” value (GPR143 [1]) was “significantly upregulates” and the “release of PEDF” value (GPR143 [1]; listed as L-DOPA) was “stimulated the release of PEDF”.
In the case of `CCOC(=O)[C@@H](N)Cc1ccc(O)c(O)c1` [Etilevodopa], the ocular penetration [4] is listed as “increased ocular penetration”.
